Earlier results, collected in patent US20110281920A1, “INJECTABLE PARASITICIDAL FORMULATIONS OF LEVAMISOLE AND MACROCYCLIC LACTONES” (priority 2010, published 2011).

How the values were obtained:
[1] = lactating mammals; ratio of 1 = even distribution between milk and plasma

Compound	Solubility in water	milk to plasma partition ratio [1]
c1ccc([C@H]2CN3CCSC3=N2)cc1 [Levamisole]	water soluble	–
eprinomectin	nearly water insoluble	~0.2
